The record followed here is patent US9345682B2, “Inhibition of STAT3 signal transduction for human cancer therapy” (University of South Florida, priority 1999, dated 2016).

On the set-up of data set [1]: species or system mice. The following applies: mouse, in vivo. As for the experimental part:
FIG. 7: AG490 Blocks Tumorigenicity of Breast Carcinoma Cells. Nude mice are engrafted with MDA-MB-468 tumor cells, and then treated with AG490 by mini-pump infusion (42 mpk) and daily intraperitoneal injections (50 mpk).
AG490 is administered by continuous infusion using subcutaneous mini-pumps supplemented with intraperitoneal injections.

Data set [2] has as its system Bcl-xL. The data set is described as follows: Bcl-xL expression (RT-PCR, Western blot) in U266 cells. The arrangement: dose or concentration left out as unconfirmed. It is filed as cell-based, human. As for the experimental part:
Cells are lysed in a buffer composed of 50 mM Tris-Cl, pH 7.4, 5 mM EDTA, 150 mM NaCl, and 0.5% Triton-X 100 containing 1 mg/ml leupeptin and aprotinin, and 1 mM PMSF. Protein content of the cell lysates is quantified by the Bradford assay (Bio-Rad), and […] total protein is dissolved in Laemmli SDS-PAGE sample buffer prior to separation by 10% SDS-PAGE. Proteins are transferred to PVDF membrane and Western blot analysis is performed by standard techniques with ECL detection (Amersham). The Bcl-xL antibody, clone 124 (Dako), is used at a 1:2000 dilution. The Bcl-xL, antibody, clone S-18 (Santa Cruz Biotechnology), is used at a 1:500 dilution. Blots are quantified by densitometry and expression levels were normalized to b-actin (Sigma).
Total RNA is isolated by lysis in guanidine isothiocyanate followed by centrifugation through a cesium chloride gradient. cDNA is prepared from 200 ng of total RNA in a […] reaction with AMV-RT (Boehringer-Mannheim). […] Tem ml of PCR products are electrophoresed on a 5% acrylamide gel and quantified by phosphorimaging using ImageQuant software (Molecular Dynamics).

In data set [3] the test system is STAT3. The data set is described as follows: EMSA (SIE probe) of constitutive STAT3 DNA-binding in U266 myeloma cells. The following applies: 50 mM AG490, within 16 to 24 hours. It is filed as cell-based, human. The procedure:
U266 and RPMI 8226 cell lines are originally obtained from ATCC and maintained in RPMI 1640 medium supplemented with 10% fetal calf serum (FCS). For detection of STATs in primary bone marrow (BM) cells, BM aspirates are diluted 1:2 in phosphate-buffered saline (PBS) and mononuclear cells are separated by the standard Ficoll-Hypaque (Pharmacia LKB Biotechnology) sedimentation procedure. Mononuclear cells are washed twice with PBS, and nuclear extracts are prepared as described below. For inhibitor studies, a minimum of 10^7 U266 cells are treated with 1 mg/ml Sant7 or with […] AG490 (Meydan, et al., 1996, Nature 379:645-648). NIH 3T3 cells overexpressing the human EGF receptor have been described (Garcia, et al., 1997, Immunity 5:449-460).
Nuclear extracts are prepared as previously described. Briefly, nuclei are isolated and extracted in hypertonic buffer (20 mM HEPES, pH 7.9, 420 mM NaCl, 1 mM EDTA, 1 mM EGTA, 20% glycerol, 20 mM NaF, 1 mM Na3VO4, 1 mM Na2P4O7, 1 mM DTT, 0.5 mM PMSF, 0.1 mM aprotinin, 1 mM leupeptin, and 1 mM antipain). […] Protein-DNA complexes are resolved on 5% non-denaturing polyacrylamide gels and analyzed by autoradiography. […]

Data set [4] has as its system MOPC tumors. The data set is described as follows: MOPC myeloma tumor growth in vivo. More on the design: species or system BALB/c mice. As for the experimental part: Mice and tumor formation in vivo. Six- to eight-week old female BALB/c mice are obtained from the National Cancer Institute (Frederick, Md.). Cohorts of 3-5 mice per group are used for these experiments. Mice are shaved on the right flank and injected subcutaneously (s.c.) with 5×10^5 of either MOPC or MPC11 cells in […] of PBS to induce tumors.
In vivo treatment with AG-490 and IL-12. When tumors reach about 5 […] in diameter, AG-490 treatment of tumors is initiated and continued daily for 7-10 days. For MOPC tumors, injections of 0.85 mg/day of AG-490 are given intratumorally, supplemented with 0.5 mg/day of AG-490 i.p. For MPC11 tumors, the intratumoral treatment is halved while the i.p. dose remains the same. Control mice receive 50% DMSO vehicle alone in the same volume as the AG-490 treatment group. Recombinant IL-12 is given s.c. at either 100 ng or 200 ng every other day. Tumor growth is monitored daily by measuring two perpendicular tumor diameters with a caliper, and tumor volume was calculated according to the formula V=0.52*a*b(a+b)/2 (a=smallest superficial diameter; b=largest superficial diameter).

`N#C/C(=C\c1ccc(O)c(O)c1)C(=O)NCc1ccccc1` [AG490]: the toxicity in animals entry in data set [1] is recorded as “not detectably toxic”. Besides, the “bcl-x mRNA expression” value in data set [2] (AG490, 24 hours) was “significant reduction”. Moreover, the Bcl-xL protein levels entry in data set [2] (AG490, 30 hours) is reported as “nearly absent”. For the same molecule, the “constitutive STAT3 DNA-binding activity” value in data set [3] is listed as “complete abrogation”. Moreover, in data set [4] (5-mm pre-existing MOPC tumors, AG-490 0.85 mg/day intratumorally plus 0.5 mg/day i.p.), the “time to complete regression of all treated tumors” value lay within 3 to 8 days. Also, the “tumor regrowth after regression” value in data set [4] (MOPC tumors, AG-490 treated mice) is given as “tumor regrowth is observed in all of the AG-490 treated mice except for one”.
